Converted amounts (≈) assume the structure as drawn. Where two headings read alike, the source gives them in different places.
How the values were obtained:
[1] = molecular target: T1, acetylcholinesterase (Homo sapiens, UniProt P22303); assay: Kinetic analysis of acetylcholinesterase inhibition (Lineweaver-Burk and secondary plots); assay type: biochemical; conditions: for type of acetylcholinesterase inhibition: Lineweaver-Burk and Dixon plots; for Ki: estimated from slope of Lineweaver-Burk plots vs inhibitor concentration, read-out: Ki (inhibition constant), acetylcholinesterase
T1 construct: purchased Sigma-Aldrich
Text: The type of inhibition and inhibition constants (Ki value) of the compounds were investigated using Lineweaver–Burk and Dixon plots (Figure 5 and Figure 6).
The Ki values were estimated by plotting the slope of the individual Lineweaver–Burk plots versus the inhibitor concentrations (Figure 5B and Figure 6B).
For determination of 5-thio-2-nitro-benzoic acid, the product of reaction between the thiocholine with Ellman’s reagent, HPLC-DAD method was applied. The chromatographic analysis was performed in the same conditions as was used for determination of cholinesterase activity described above. Quantification of 5-thio-2-nitro-benzoic acid was performed by a calibration curve method. 5-thio-2-nitrobenzoic acid was prepared from 5′-dithiobis-(2-nitrobenzoic acid) as described by Landino et al.. 0.5 g of 5′-dithiobis-(2-nitrobenzoic acid) in 25 mL 0.5 M Tris–HCl, pH 8.8, was treated with 2.5 mL β-mercaptoethanol. The pH of the solution was adjusted to 1.5 with 6M HCl. 5-thio-2-nitro-benzoic acid was formed after 6–8 h at 4 °C. The crystals of -thio-2-nitro-benzoic acid were filtered and washed with cold 0.1 M HCl. Types of inhibition were determined by the graphical analysis of Lineweaver–Burk plots and its secondary plots.

[2] = molecular target: T1, acetylcholinesterase; assay type: biochemical; conditions: alkaloid standards; HPLC-DAD; 0.2 U/mL enzyme; 15 min at 37 °C; pH 7.8
Method: For determination of acetylcholinesterase inhibitory activity of alkaloid standards and plant extracts by HPLC analysis was performed on the same apparatus as determination of alkaloid contents on Polar RP column with mobile phase A containing methanol and 0.0025 M diethylamine, mobile phase B containing acetate buffer at pH 3.8 and 0.0025 M diethylamine, mobile phase in gradient elution: 0–15 min, 10% A; 15–30 min, 10–70% A; 30–60 min, 70% A. Flow rate was 1 mL/min.
(§1) Samples for determination of acetylcholinesterase inhibitory activity were prepared by addition of 50 µL of acetylthiocholine iodide, 50 µL of 5′-dithiobis-(2-nitrobenzoic acid), 50 µL of acetylcholinesterase at concentration 2 U/mL and phosphate buffer at pH 7.8 to obtaining 500 µL of final solution. […] All components were mixed and samples were incubated for 15 min at 37 °C. Samples were filtrated by syringe filter (CHROMAFIL Xtra, PVDF-29/25 0.20 µm) and injected into HPLC system. […] All experiments were performed in triplicates.

[3] = system: swine or human cell lines; conditions: cited from earlier work
[4] = molecular target: T2, butyrylcholinesterase (Homo sapiens, UniProt P06276); assay: Butyrylcholinesterase inhibitory activity by HPLC-DAD (Ellman reaction product TNBA); assay type: biochemical; conditions: alkaloid standards, 0.2 U/mL enzyme, 15 min at 37 °C
T2 construct: purchased Sigma-Aldrich
Method: For determination of butyrylcholinesterase inhibitory activity of alkaloid standards and plant extracts by HPLC analysis was performed on the same apparatus, column and mobile phase as determination of acetylcholinesterase inhibitory activity.
as §1, with “butyrylcholinesterase” for “acetylcholinesterase”, “butyrylthiocholine” for “acetylthiocholine”

[5] = system: pig livers; conditions: 32P-post-labeling assay; cited from earlier work
[6] = molecular target: T2, butyrylcholinesterase; conditions: modified Ellman's method; read-out: IC50 against butyrylcholinesterase; cited from earlier work
[7] = molecular target: T1, acetylcholinesterase; conditions: modified Ellman's method; read-out: IC50 against acetylcholinesterase; cited from earlier work
[8] = pH 7.8, read-out: IC50 values Butyrylcholinesterae
[9] = pH 7.8, read-out: IC50 values Butyrylcholinesterae (μg/mL) (converted)

T1 sequence (P22303 32-614, species assumed): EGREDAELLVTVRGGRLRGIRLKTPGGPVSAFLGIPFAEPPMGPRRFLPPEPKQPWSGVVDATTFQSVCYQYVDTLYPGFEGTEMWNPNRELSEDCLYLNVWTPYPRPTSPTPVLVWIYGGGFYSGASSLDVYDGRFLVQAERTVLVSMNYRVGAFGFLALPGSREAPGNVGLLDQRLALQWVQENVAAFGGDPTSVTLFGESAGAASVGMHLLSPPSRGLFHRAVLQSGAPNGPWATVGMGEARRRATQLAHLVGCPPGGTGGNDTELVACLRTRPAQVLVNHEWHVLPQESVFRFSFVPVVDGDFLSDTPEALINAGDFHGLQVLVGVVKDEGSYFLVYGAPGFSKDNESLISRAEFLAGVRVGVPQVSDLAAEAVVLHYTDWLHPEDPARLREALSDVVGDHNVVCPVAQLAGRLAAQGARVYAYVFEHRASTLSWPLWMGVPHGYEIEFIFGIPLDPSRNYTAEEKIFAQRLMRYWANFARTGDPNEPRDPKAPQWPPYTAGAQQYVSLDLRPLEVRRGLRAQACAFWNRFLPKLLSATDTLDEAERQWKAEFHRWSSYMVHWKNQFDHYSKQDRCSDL
T2 sequence (P06276 29-602): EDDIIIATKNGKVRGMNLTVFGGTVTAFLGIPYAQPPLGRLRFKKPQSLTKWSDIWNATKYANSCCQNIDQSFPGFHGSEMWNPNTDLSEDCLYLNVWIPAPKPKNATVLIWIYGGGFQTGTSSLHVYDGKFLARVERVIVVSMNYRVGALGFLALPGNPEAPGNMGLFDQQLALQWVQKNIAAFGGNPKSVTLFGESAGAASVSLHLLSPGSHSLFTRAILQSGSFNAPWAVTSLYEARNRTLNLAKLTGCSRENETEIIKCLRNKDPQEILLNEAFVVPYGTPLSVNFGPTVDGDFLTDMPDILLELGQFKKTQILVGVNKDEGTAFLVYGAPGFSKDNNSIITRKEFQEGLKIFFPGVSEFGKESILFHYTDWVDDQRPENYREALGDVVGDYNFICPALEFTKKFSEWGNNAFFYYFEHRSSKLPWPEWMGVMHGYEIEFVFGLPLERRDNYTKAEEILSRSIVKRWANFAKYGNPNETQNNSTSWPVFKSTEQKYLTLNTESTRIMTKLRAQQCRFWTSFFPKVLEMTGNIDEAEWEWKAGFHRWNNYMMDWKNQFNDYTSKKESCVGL

| SMILES | type of acetylcholinesterase inhibition [1] | Ki [1] [µM] | IC50 [2] [µM] | toxicity [3] | IC50 [4, 8] [µM] | IC50 [4, 9] [µM] | DNA adducts [5] | IC50 values Acetylcholinesterase [2] [mg/L] | IC50 ([4]; IC50 values Butyrylcholinesterae (μM), pH 7.8) [µM] | IC50 ([4]; IC50 values Butyrylcholinesterae (μg/mL), pH 7.8) [µM] | IC50 [6] [µM] | IC50 [7] [µM] |
| --- | --- | --- | --- | --- | --- | --- | --- | --- | --- | --- | --- | --- |
| C[n+]1cc2c3c(ccc2c2ccc4cc5c(cc4c21)OCO5)OCO3 [Sanguinarine, sanguinarine] | noncompetitive | 0.2 | 5.57 ± 0.47 | low toxicity | 9.82 ± 0.91 | 9.81 | no DNA adducts |  |  |  |  |  |
| CN1CCc2cc3c(cc2C(=O)Cc2ccc4c(c2C1)OCO4)OCO3 [Protopine, protopine] |  |  |  |  |  |  |  | 24.67 (≈ 69.8 µM) | 52.8 ± 4.81 | 52.8 |  |  |
| COc1ccc2c(c[n+](C)c3c4cc5c(cc4ccc23)OCO5)c1OC [Chelerythrine, chelerythrine] | competitive | 0.18 | 0.72 ± 0.08 | low toxicity | 2.15 ± 0.19 | 2.15 | no DNA adducts |  |  |  | 3.55 | 1.03 |

Reference: publication PMC9182188, “Isoquinoline Alkaloid Contents in Macleaya cordata Extracts and Their Acetylcholinesterase and Butyrylcholinesterase Inhibition” (Molecules, 2022)
